Three compounds from ChEMBL document CHEMBL3286265, “Three new anti-proliferative Annonaceous acetogenins with mono-tetrahydrofuran ring from graviola fruit (Annona muricata)” (Bioorg Med Chem Lett, 2014) can be followed below.

Structures are written as SMILES. Activity calls are given as the source filed them. The rule behind the calls is not given here.

The experiment has as its system PC-3. Nature of the experiment: Antiproliferative activity against human PC3 cells at 20 ug/ml after 24 hrs by MTT assay. Type of experiment: functional, cell-based. In general terms: Formazan colour is commonly taken as a measure of viable cells.
Consider `CCCCCCCC[C@@H](O)[C@@H](O)CC[C@H](O)[C@H]1CC[C@H](CCCCCCCCCCC[C@H](O)CC2=C[C@H](C)OC2=O)O1`, for which the inhibition result is “Active”.
With `CCCCCCCCCCCC[C@H](O)[C@H]1CC[C@H]([C@H](O)CC(O)CCCCCCCC[C@H](O)CC2=C[C@H](C)OC2=O)O1` (stereo partly drawn), the inhibition result was “Active”.
Take `CCCCCCCC(O)CCCCCCC[C@@H](O)[C@H]1CC[C@H]([C@H](O)CCCCCCC[C@H](O)CC2=C[C@H](C)OC2=O)O1` (stereo partly drawn): the inhibition result is “Active”.
